Experimental findings from PubChem BioAssay (NCI) are described below.

SMILES strings stand for the structures. Several values for one entry are separate records, joined by “and”; a condition that tells them apart may be missing. Equal values may be shown once.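 How tested: cells in 96-well plates exposed to compound for 48 hours at five concentrations. At the GI50, growth is halved. Definition used: TGI = concentration required for complete inhibition of growth.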

The first assay has as its system MOLT-4 leukemia. Briefly: NCI tumour cell line growth inhibition, 48 h.
The compound `O=C1c2ccccc2N2OC3(N4CCCC4)CCCC3C12c1ccccc1` (configuration not stated) came in with a TGI above 100 µM.

Compound `COc1ccc(C2C(Cl)C(=O)N2n2cnc3ccccc3c2=O)cc1OC` (configuration not stated) yielded a TGI above 100 µM.

In turn, `Nc1nc2c(ncn2Cc2ccccc2CCO)c(=O)[nH]1` displayed a TGI above 100 µM.

`CCC1(Br)C(=O)NC(=O)N(C2CC(O)C(CO)O2)C1N=[N+]=[N-]` (configuration not stated) yielded a TGI above 100 µM.

Consider `O=[N+]([O-])c1ccc(N=Nc2c(O)[nH]c3ccc([N+](=O)[O-])cc23)cc1`, for which the TGI was above 100 µM.

For `CC12CC3(C)CC(C)(C1)CC(N=[N+]=[N-])(C2)C3`, the TGI is above 100 µM.

As to `N=C(N)SCc1cn2ccccc2n1`, the TGI is above 100 µM.

With `Fc1cccc(Cl)c1C1SCc2nc3ccccc3n21` (configuration not stated), the TGI stood at 52.1 µM.

In the case of `COc1cc2nncc(Sc3cnnc4ccccc34)c2cc1OC`, the TGI was 54.5 µM.

The compound `COC(=O)C1=CCON(c2ccccc2)C1c1ccccc1` (configuration not stated) registered a TGI above 100 µM.

`CC(=O)N(CCN)CCN` registered a TGI above 10 µM.

In turn, `Cc1cc(O)c2c(c1)C(O)(c1ccc3c(c1O)C(=O)c1c(O)cc(C)cc1C3(O)C1OC(CO)C(O)C(O)C1O)c1cccc(O)c1C2=O` (configuration not stated) registered a TGI of 32.6 µM.

In turn, `COC(=O)c1nc(NN)[nH]c(=O)c1CCCCCc1c(C(=O)OC)[nH]c(NN)cc1=O` registered a TGI above 100 µM.

Compound `CC1(C)C(=O)C(O)=CC2C1=CCC1C2(C)C(=O)CC2(C)C(C(C)(O)C(=O)CC(O)C(C)(C)O)C(O)CC12C` (configuration not stated) showed a TGI above 81.8 µM.

As for `CCc1ccccc1NC(=O)C(=O)C(C(=O)c1ccc(OC)cc1)c1ccc(OC)cc1` (configuration not stated), the TGI is above 100 µM.

On to `C/C(=N/N(C=O)C[n+]1ccccc1)C(CN(CC(C)C)CC(C)C)C(=O)Nc1ccc(C)cc1C` (configuration not stated), for which the TGI is above 100 µM.

For the compound `COc1cc(C2c3cc4c(cc3[C@@H](Nc3ccc(N(C)C)cc3)[C@H]3COC(=O)C23)OCO4)cc(OC)c1O` (some centres not stated), the GI50 is below 0.0075 µM.

`COc1ccc([C@H]2CC(=O)N3CCCC3N2)cc1` (some centres not stated) came in with a TGI above 100 µM.

`Cc1nc2c(n1CC(C)(C)C)C(=O)c1ccccc1C2=O` gave a TGI above 100 µM.

The compound `COc1ccc(C(C2=C(C)C(=O)c3ccccc3C2=O)c2ccc(C(C)C)cc(=O)c2O)cc1` (configuration not stated) displayed a TGI above 100 µM.

`CC(C)N(C(=O)C12C3C4C1C1C2C3C41C(O)C(C)(C)C)C(C)C` (configuration not stated): the TGI was above 50 µM.

The test system of another assay is U251 CNS. Briefly: NCI tumour cell line growth inhibition, 48 h.
On to `O=C1c2ccccc2N2OC3(N4CCCC4)CCCC3C12c1ccccc1` (configuration not stated), for which the TGI was above 100 µM.

Regarding `COc1ccc(C2C(Cl)C(=O)N2n2cnc3ccccc3c2=O)cc1OC` (configuration not stated), the TGI was above 100 µM.

Take `Nc1nc2c(ncn2Cc2ccccc2CCO)c(=O)[nH]1`: the TGI is above 100 µM.

`CCC1(Br)C(=O)NC(=O)N(C2CC(O)C(CO)O2)C1N=[N+]=[N-]` (configuration not stated) yielded a TGI above 100 µM.

In turn, `O=[N+]([O-])c1ccc(N=Nc2c(O)[nH]c3ccc([N+](=O)[O-])cc23)cc1` displayed a TGI of 41.7 µM.

In turn, `CC12CC3(C)CC(C)(C1)CC(N=[N+]=[N-])(C2)C3` came in with a TGI above 100 µM.

`N=C(N)SCc1cn2ccccc2n1` registered a TGI above 100 µM.

Turning to `Clc1ccc([O][In]([O]c2ccc(Cl)cn2)[O]c2ccc(Cl)cn2)nc1`, the GI50 is above 100 µM and the TGI was above 100 µM.

`Fc1cccc(Cl)c1C1SCc2nc3ccccc3n21` (configuration not stated) registered a TGI of 89.7 µM.

The compound `COc1cc2nncc(Sc3cnnc4ccccc34)c2cc1OC` showed a TGI of 67.5 µM.

`COC(=O)C1=CCON(c2ccccc2)C1c1ccccc1` (configuration not stated) gave a TGI above 100 µM.

The compound `CC(=O)N(CCN)CCN` showed a TGI above 10 µM.

In turn, `Cc1cc(O)c2c(c1)C(O)(c1ccc3c(c1O)C(=O)c1c(O)cc(C)cc1C3(O)C1OC(CO)C(O)C(O)C1O)c1cccc(O)c1C2=O` (configuration not stated) yielded a TGI of 23.8 µM.

`COC(=O)c1nc(NN)[nH]c(=O)c1CCCCCc1c(C(=O)OC)[nH]c(NN)cc1=O` returned a TGI above 100 µM.

`CC1(C)C(=O)C(O)=CC2C1=CCC1C2(C)C(=O)CC2(C)C(C(C)(O)C(=O)CC(O)C(C)(C)O)C(O)CC12C` (configuration not stated) showed a TGI of 7.58 µM.

With `CCc1ccccc1NC(=O)C(=O)C(C(=O)c1ccc(OC)cc1)c1ccc(OC)cc1` (configuration not stated), the TGI was above 100 µM.

As to `COc1cc(C2c3cc4c(cc3[C@@H](Nc3ccc(N(C)C)cc3)[C@H]3COC(=O)C23)OCO4)cc(OC)c1O` (some centres not stated), the GI50 was 0.195 µM; the TGI was 1.33 µM and 3.37 µM.

With `COc1ccc([C@H]2CC(=O)N3CCCC3N2)cc1` (some centres not stated), the TGI was above 100 µM.

Compound `O=C(CCc1nc(=S)[nH][nH]1)NC12CC3CC(CC(C3)C1)C2` displayed a TGI above 100 µM.

Turning to `CSc1nc2c(c(O)c(C)c(=O)n2C2OC(COC(C)=O)C(OC(C)=O)C(OC(C)=O)C2OC(C)=O)c(=O)n1C` (configuration not stated), the TGI is above 100 µM.

Regarding `Cc1nc2c(n1CC(C)(C)C)C(=O)c1ccccc1C2=O`, the TGI was above 100 µM.

On to `COc1ccc(C(C2=C(C)C(=O)c3ccccc3C2=O)c2ccc(C(C)C)cc(=O)c2O)cc1` (configuration not stated), for which the TGI was determined as 10.9 µM.

On to `CC(C)N(C(=O)C12C3C4C1C1C2C3C41C(O)C(C)(C)C)C(C)C` (configuration not stated), for which the TGI is above 50 µM.

The test system of the next assay is OVCAR-3 ovarian. Put plainly: NCI tumour cell line growth inhibition, 48 h.
In the case of `COc1ccc(C2C(Cl)C(=O)N2n2cnc3ccccc3c2=O)cc1OC` (configuration not stated), the TGI was above 100 µM.

Turning to `Nc1nc2c(ncn2Cc2ccccc2CCO)c(=O)[nH]1`, the TGI was above 100 µM.

`CCC1(Br)C(=O)NC(=O)N(C2CC(O)C(CO)O2)C1N=[N+]=[N-]` (configuration not stated) gave a TGI above 100 µM.

Compound `O=[N+]([O-])c1ccc(N=Nc2c(O)[nH]c3ccc([N+](=O)[O-])cc23)cc1` came in with a TGI of 42 µM.

In turn, `CC12CC3(C)CC(C)(C1)CC(N=[N+]=[N-])(C2)C3` had a TGI above 100 µM.

`N=C(N)SCc1cn2ccccc2n1` yielded a TGI above 100 µM.

As for `Clc1ccc([O][In]([O]c2ccc(Cl)cn2)[O]c2ccc(Cl)cn2)nc1`, the GI50 was above 100 µM and the TGI was above 100 µM.

The compound `Fc1cccc(Cl)c1C1SCc2nc3ccccc3n21` (configuration not stated) registered a TGI of 53.2 µM.

With `COc1cc2nncc(Sc3cnnc4ccccc34)c2cc1OC`, the TGI is 33.3 µM.

On to `COC(=O)C1=CCON(c2ccccc2)C1c1ccccc1` (configuration not stated), for which the TGI was above 100 µM.

`CC(=O)N(CCN)CCN` gave a TGI above 10 µM.

Turning to `Cc1cc(O)c2c(c1)C(O)(c1ccc3c(c1O)C(=O)c1c(O)cc(C)cc1C3(O)C1OC(CO)C(O)C(O)C1O)c1cccc(O)c1C2=O` (configuration not stated), the TGI worked out at 22.6 µM.

As for `COC(=O)c1nc(NN)[nH]c(=O)c1CCCCCc1c(C(=O)OC)[nH]c(NN)cc1=O`, the TGI is above 100 µM.

As for `CC1(C)C(=O)C(O)=CC2C1=CCC1C2(C)C(=O)CC2(C)C(C(C)(O)C(=O)CC(O)C(C)(C)O)C(O)CC12C` (configuration not stated), the TGI amounted to 10.2 µM.

With `CCc1ccccc1NC(=O)C(=O)C(C(=O)c1ccc(OC)cc1)c1ccc(OC)cc1` (configuration not stated), the TGI was above 100 µM.

Turning to `C/C(=N/N(C=O)C[n+]1ccccc1)C(CN(CC(C)C)CC(C)C)C(=O)Nc1ccc(C)cc1C` (configuration not stated), the TGI was above 100 µM.

Turning to `COc1cc(C2c3cc4c(cc3[C@@H](Nc3ccc(N(C)C)cc3)[C@H]3COC(=O)C23)OCO4)cc(OC)c1O` (some centres not stated), the TGI was 16.9 µM.

The compound `O=C(CCc1nc(=S)[nH][nH]1)NC12CC3CC(CC(C3)C1)C2` yielded a TGI above 100 µM.

Take `CSc1nc2c(c(O)c(C)c(=O)n2C2OC(COC(C)=O)C(OC(C)=O)C(OC(C)=O)C2OC(C)=O)c(=O)n1C` (configuration not stated): the TGI is above 100 µM.

Compound `Cc1nc2c(n1CC(C)(C)C)C(=O)c1ccccc1C2=O` had a TGI above 100 µM.

Regarding `COc1ccc(C(C2=C(C)C(=O)c3ccccc3C2=O)c2ccc(C(C)C)cc(=O)c2O)cc1` (configuration not stated), the TGI was found to be 8.54 µM.

Turning to `CC(C)N(C(=O)C12C3C4C1C1C2C3C41C(O)C(C)(C)C)C(C)C` (configuration not stated), the TGI was above 50 µM.

The subject of another assay is KM12 colon. Briefly: NCI tumour cell line growth inhibition, 48 h.
Turning to `COc1ccc(C2C(Cl)C(=O)N2n2cnc3ccccc3c2=O)cc1OC` (configuration not stated), the TGI is above 100 µM.

Turning to `Nc1nc2c(ncn2Cc2ccccc2CCO)c(=O)[nH]1`, the TGI is above 100 µM.

Turning to `O=[N+]([O-])c1ccc(N=Nc2c(O)[nH]c3ccc([N+](=O)[O-])cc23)cc1`, the TGI came out at 30.8 µM.

Regarding `CC12CC3(C)CC(C)(C1)CC(N=[N+]=[N-])(C2)C3`, the TGI is above 100 µM.

For the compound `N=C(N)SCc1cn2ccccc2n1`, the TGI is above 100 µM.

Regarding `Clc1ccc([O][In]([O]c2ccc(Cl)cn2)[O]c2ccc(Cl)cn2)nc1`, the GI50 was above 100 µM and the TGI was above 100 µM.

For `Fc1cccc(Cl)c1C1SCc2nc3ccccc3n21` (configuration not stated), the TGI is 59.5 µM.

Regarding `COc1cc2nncc(Sc3cnnc4ccccc34)c2cc1OC`, the TGI is 56.5 µM.

In turn, `COC(=O)C1=CCON(c2ccccc2)C1c1ccccc1` (configuration not stated) returned a TGI above 100 µM.

`CC(=O)N(CCN)CCN` yielded a TGI above 10 µM.

`Cc1cc(O)c2c(c1)C(O)(c1ccc3c(c1O)C(=O)c1c(O)cc(C)cc1C3(O)C1OC(CO)C(O)C(O)C1O)c1cccc(O)c1C2=O` (configuration not stated) displayed a TGI of 24 µM.

Regarding `COC(=O)c1nc(NN)[nH]c(=O)c1CCCCCc1c(C(=O)OC)[nH]c(NN)cc1=O`, the TGI is above 100 µM.

In turn, `CC1(C)C(=O)C(O)=CC2C1=CCC1C2(C)C(=O)CC2(C)C(C(C)(O)C(=O)CC(O)C(C)(C)O)C(O)CC12C` (configuration not stated) had a TGI above 100 µM.

In turn, `CCc1ccccc1NC(=O)C(=O)C(C(=O)c1ccc(OC)cc1)c1ccc(OC)cc1` (configuration not stated) registered a TGI above 100 µM.

Turning to `C/C(=N/N(C=O)C[n+]1ccccc1)C(CN(CC(C)C)CC(C)C)C(=O)Nc1ccc(C)cc1C` (configuration not stated), the TGI was above 100 µM.

Turning to `COc1cc(C2c3cc4c(cc3[C@@H](Nc3ccc(N(C)C)cc3)[C@H]3COC(=O)C23)OCO4)cc(OC)c1O` (some centres not stated), the GI50 was 3.34 µM; the TGI was 4.49 µM and 14.3 µM.

`COc1ccc([C@H]2CC(=O)N3CCCC3N2)cc1` (some centres not stated) returned a TGI above 100 µM.

Regarding `O=C(CCc1nc(=S)[nH][nH]1)NC12CC3CC(CC(C3)C1)C2`, the TGI is above 100 µM.

Compound `CSc1nc2c(c(O)c(C)c(=O)n2C2OC(COC(C)=O)C(OC(C)=O)C(OC(C)=O)C2OC(C)=O)c(=O)n1C` (configuration not stated) registered a TGI above 100 µM.

The compound `Cc1nc2c(n1CC(C)(C)C)C(=O)c1ccccc1C2=O` showed a TGI above 100 µM.

Take `COc1ccc(C(C2=C(C)C(=O)c3ccccc3C2=O)c2ccc(C(C)C)cc(=O)c2O)cc1` (configuration not stated): the TGI was above 100 µM.
